For one substance, EC50 results are on record in US20170119896A1, “TERMINALLY MODIFIED POLYMERS AND CONJUGATES THEREOF” (Mersana Therapeutics, Inc., priority 2012, published 2017).

One may read the EC50 as the concentration that produces a half-maximal response. Low values mean an effect from little substance, high ones a need for much substance.

The test concerns the target T1, glucagon-like peptide-1 receptor (GLP1R CHO-K1 Gs overexpressing cells) (Homo sapiens, UniProt P43220).
T1 construct: host or cells: CHO-K1
The experiment in a line: DiscoveRx cAMP Hunter express GPCR Assay (cellular cAMP formation). The note with it: 30 min at 37° C., cAMP chemiluminescent signal, four-parameter curve fitting. In kind it is cell-based. The protocol: The activity of terminally modified PHF exendin conjugates were measured using DiscoveRx cAMP Hunter express GPCR Assay which determines the cellular formation of a second messenger such as cAMP. […] It binds to glucagon-like peptide-1 receptor 1-G-protein coupled receptor (GPCR). Following stimulation of this receptor, intracellular signaling pathways are activated that lead to the production of intracellular second messengers, such as cAMP. Free cAMP molecules from cell lysates compete for antibody binding with a labeled enzyme donor (ED)-cAMP conjugate, which contains a small peptide fragment of β-galactosidase. In the absence of free cAMP, the ED-cAMP conjugates are captured by the cAMP-specific antibody and are unavailable for complementation with the enzyme acceptor (EA), resulting in a low signal. In the presence of free cAMP, antibody sites are occupied, allowing the ED-cAMP conjugate to complement with EA, forming an active β-galactosidase enzyme; substrate hydrolysis by this enzyme produces a chemiluminescent signal. The signal generated is in direct proportion to the amount of free cAMP […]. […] Luminescent signal was measured using a SpectraMax M5 plate reader (Molecular Devices). […] EC50 values were determined from four-parameter curve fitting.
A general note: cAMP levels reflect the balance of adenylyl cyclase and phosphodiesterase activity.

T1 sequence (P43220 24-463): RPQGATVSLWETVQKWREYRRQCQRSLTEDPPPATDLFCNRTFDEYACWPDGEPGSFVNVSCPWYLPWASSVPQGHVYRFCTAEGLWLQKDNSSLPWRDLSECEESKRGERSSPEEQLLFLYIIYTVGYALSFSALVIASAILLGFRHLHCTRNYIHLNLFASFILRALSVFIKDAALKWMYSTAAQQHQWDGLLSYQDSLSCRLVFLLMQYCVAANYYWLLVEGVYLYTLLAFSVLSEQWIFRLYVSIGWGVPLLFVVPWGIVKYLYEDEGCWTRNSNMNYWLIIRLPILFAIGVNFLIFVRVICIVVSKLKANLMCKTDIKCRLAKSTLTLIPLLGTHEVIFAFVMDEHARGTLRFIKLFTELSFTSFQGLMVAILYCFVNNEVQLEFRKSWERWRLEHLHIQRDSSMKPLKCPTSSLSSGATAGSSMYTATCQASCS

“50 kDa PHF-6-maleimido hexanamide-Exendin-4-Cys (i.e., (Exendin-4-Cys)-(N-(2-maleimido)propanamido)propyl)-ethylamino-50 kDa PHF) [Example 15]” gave an EC50 of 1.87 nM.
